Among the data in ChEMBL document CHEMBL1151644, “Alkaloids and coumarins of Casimiroa edulis” (1985) are Activity values, retold here.

Assay [1] concerns Rattus norvegicus. As to the kind of experiment: Antiinflammatory activity against carrageenan-induced hind paw edema in rat at 100 mg/kg. The format is functional. In general terms: The carrageenan paw model is a standard test of acute inflammation.
Assay [2] has as its system Rattus norvegicus. As to the kind of experiment: Diuretic activity in rat at 125 mg/kg. The format is functional, Urine.

Take `COc1c2ccoc2c(OC)c2oc(=O)ccc12` [ISOPIMPINELLIN]: the Activity in the assay on Rattus norvegicus [1] came out at 30.4%; with Rattus norvegicus [2], 84%.
In the same order, the values of `CCCCCCCCCCCCCCCCCCCCCCCCCCCCCCC` [HENTRIACONTANE] are 30.4% and 84%.
